A short description of one series: in vitro. The series is classed as in vitro ADME, mouse. The protocol: Livers from 10 female Tac:NCr:Foxn1^nu/nu mice were excised, rinsed with ice cold PBS (no Ca^++ or Mg^++) and weighed. The tissues were minced with scissors in Petri dishes on ice with Tris buffered saline (Pierce BupH™ Tris buffered saline packs, #28376; 25 mM Tris, 150 mM NaCl, pH 7.2). After mincing, the tissues were dounce homogenized, and the total volume adjusted with ice cold Tris buffer (4 mL for every gram of excised tissue). The homogenate was centrifuged at ˜4000×g for 10 min at 4° C. The supernatants were aliquoted into Eppendorf tubes on ice (200 and 100 μl volumes) and stored at −80° C. Kidney homogenates were similarly prepared. […] The mixture was centrifuged at 4° C. for 20 min at 20,000×g to precipitate the protein; 10 μL (˜7.6 μCi) of the supernatant was injected into the HPLC for the analysis. […] Peaks at these retention times were also observed in the in vivo plasma sample (FIG. 1). […] The final concentration for the Lu-BRU-2813 in the homogenate sample solution was ˜0.4 mg/mL. After 60 min incubation, the sample was immediately cooled on ice, and then 0.48 mL of ice-cooled methanol was added. The sample was centrifuged at 4° C. for 20 min at 20,000×g to precipitate the protein. The supernatant was collected, concentrated using a speed vacuum to remove organic solvents, and then analyzed by LC/MS.

The next series has as its system EFO-27 cells. Kind of series: Internalization/efflux studies in EFO-27 cells. The series is classed as cell-based, human. Summed up: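 EFO-27 cells incubated 40 min at 37° C with ^177Lu-LHRH II or ^125I-LHRH II ([^125I-Tyr^8]BRU-2477) at 3.0 μCi/mL, washed, then kept in fresh medium. At 0, 15, 30, 60 and 120 min radioactivity split into membrane-bound, internalized and efflux fractions.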

In series [1] the test system is EFO-27 human ovarian cancer cells (LHRH binding sites). Kind of series: Direct binding/uptake of 177Lu-labeled LHRH-II analogs to EFO-27 cells. As to conditions: 177Lu-labeled, 4° C., 1 h, single concentration. The protocol:
All reagents and chemicals were obtained from Sigma unless otherwise specified. LHRH analogs and ^177Lu-LHRH-II analogs were prepared by in-house chemists, as described elsewhere in the application. ^177Lu-LHRH-II analogs were not HPLC purified, as they had been prepared using formulation conditions that yielded high RCP without the need for purification. […] The HPLC-purified material was taken in a stabilizing buffer containing 5% lactose, 0.1% L-cysteine hydrochloride and 800 KIU/mL aprotinin and received as a lyophilized product and stored at −70° C. This was reconstituted in distilled water, aliquoted and stored at −70° C. The radioactivity was determined using Microplate Scintillation counter (Wallac Microbeta Trilux).
For the binding assay, EFO-27 cells were seeded onto 96-well clear flat-bottom tissue-culture-treated plates at 15,000/well density in the growth medium and used for assay on day 2 post-seeding. Cells were routinely checked for confluence and contamination and cell count was done occasionally to ensure consistency in cell numbers.
Direct Binding: Direct binding studies were carried out by incubating appropriate ^177Lu-labeled compounds with EFO-27 cells at 4° C. for 1 h followed by washing off the unbound radioactivity. Non-specific binding was determined by incubating the ^177Lu-LHRH-II analogs in the presence of a large excess (30 uM) of cold (unlabeled) LHRH-II analogs. A 96-well plate format was used.

The test system of series [2] is PC-3 (human prostate cancer) cells. Kind of series: Internalization/efflux studies in PC-3 cells. The series is classed as cell-based. The procedure: Internalization/Efflux Studies: The internalization and efflux studies were carried out following the general procedure. Basically, ^177Lu-LHRH II or ^125I-LHRH II ([^125I-Tyr^8]BRU-2477) (75 uL, 3.0 μCi/mL) was added to the EFO-27 or PC-3 cells. The cells were incubated for 40 min at 37° C. The unbound radioactivity was washed off (4×). Following addition of fresh medium, the cells were further incubated for up to 2 h. At various time points (15, 30, 60 & 120 min) the distribution of radioactivity (membrane-bound, internalized, and efflux) was determined
To determine whether prostate cancer cells (PC-3) behave differently from EFO-27 cells, internalization and efflux studies were carried out with ^177Lu-BRU-2813 using both cell lines.

For series [3] the following is noted: mouse, in vivo, 10 min. The protocol:
In addition, at both 2 and 10 min post injection, blood samples from two mice were collected. The collected blood samples at each time point were pooled and treated with two times their volume with ice-cooled methanol, and then the mixture was centrifuged at 4° C. for 20 min at 20,000×g to precipitate proteins. The supernatant was collected and the organic solvent in the solution was removed by speed-vacuum for 60 min. The concentrated supernatant was assayed by HPLC.

A short description of series [4]: In vitro metabolic stability in mouse liver homogenate at 37° C. The class given is in vitro ADME. The procedure: Livers from 10 female Tac:NCr:Foxn1^nu/nu mice were excised, rinsed with ice cold PBS (no Ca^++ or Mg^++) and weighed. The tissues were minced with scissors in Petri dishes on ice with Tris buffered saline (Pierce BupH™ Tris buffered saline packs, #28376; 25 mM Tris, 150 mM NaCl, pH 7.2). After mincing, the tissues were dounce homogenized, and the total volume adjusted with ice cold Tris buffer (4 mL for every gram of excised tissue). The homogenate was centrifuged at ˜4000×g for 10 min at 4° C. The supernatants were aliquoted into Eppendorf tubes on ice (200 and 100 μl volumes) and stored at −80° C. Kidney homogenates were similarly prepared. […] The mixture was centrifuged at 4° C. for 20 min at 20,000×g to precipitate the protein; 10 μL (˜7.6 μCi) of the supernatant was injected into the HPLC for the analysis. […] Peaks at these retention times were also observed in the in vivo plasma sample (FIG. 1). […] After 0 and 60 min, the sample was removed from the incubator, immediately cooled on ice and 2 μL of 10 mM EDTA and 0.2 mL of ice-cooled MeOH were added, mixing after each addition. The proteins in the sample were separated by centrifugation at 14,000 rpm for 20 min. The supernatant was harvested and, in the samples spiked with the ^177Lu-analog, the radioactivity was measured using a Capintec dose calibrator to determine recovery. The sample was then analyzed by HPLC. […] After 0 and 60 min, the sample was removed from the incubator, immediately cooled on ice and 2 μL of 10 mM EDTA and 0.24 mL of ice-cooled methanol was added, mixing after each addition. The proteins in the sample were separated by centrifugation at 14,000 rpm for 20 min. The supernatant was collected and analyzed by LC/MS as described earlier herein.

In series [5] the test system is LHRH-II-receptor-positive but LHRH-1-receptor-negative ovarian SK-OV-3 cell lines. As to conditions: cited from earlier work.
[6] abbreviates: female, Tac:NCr:Foxn1nu/nu, mouse, tissue homogenate, pH 7.2.

Regarding `N=C(N)NCCC[C@H](NC(=O)[C@@H](Cc1ccc2ccccc2c1)NC(=O)CN1CCN(CC(=O)O)CCN(CC(=O)O)CCN(CC(=O)O)CC1)C(=O)N[C@@H](Cc1c[nH]c2ccccc12)C(=O)N[C@@H](CO)C(=O)N[C@@H](Cc1cnc[nH]1)C(=O)N[C@H](CCCNC(=N)N)C(=O)N[C@@H](Cc1c[nH]c2ccccc12)C(=O)N[C@@H](Cc1ccc(C(=O)c2ccccc2)cc1)C(=O)N1CCC[C@H]1C(=O)NNC(N)=O` [177Lu-BRU-2813, Lu-DOTA-Dnal2-Arg-Trp-Ser-His-Darg-Trp-Bpa4-Pro-azaGly-NH2, metal not drawn], the “metabolism in kidney homogenate” value in the series “in vitro” is “Extensive metabolism was seen”. Moreover, the amount remaining at 10 min, 2.3 mCi/mL in “in vitro” (female, Tac:NCr:Foxn1nu/nu, mouse, other tissue homogenate, pH 7.2) worked out at 2.4%; in series [4] (setting [6]), 18.3%. For the same molecule, the “cell surface (membrane) binding” value in the series on EFO-27 cells (% of the total bound) is 60-65%. Further, the initial internalization with EFO-27 cells (% of total bound (cell-associated) radioactivity, T=0) was determined as 27%; in series [2] (% of cell-associated counts), 25%. In addition, the efflux (with EFO-27 cells (in 1 h); in series [2] (in 1 h)) was 75-80% throughout. Also, the results for the “direct binding / uptake” value in series [1] and in series [1] (listed as Lu-BRU-2813) were 19% and 18.8%, respectively. For the same molecule, the cell surface activity in series [2] (% of the total bound) is given as 60-65%. Moreover, the “radioactivity remaining in the plasma still in parent form” value in series [3] is 66%. Further, in series [4], the “metabolism in liver homogenate” value is recorded as “Extensive metabolism was seen”. Moreover, the amount remaining at 1 h, 0.3 mg/mL in series [4] (setting [6]) stood at 12.4 ± 8.7%.
For “LHRH-II: native Chicken II LHRH: pGlu-His-Trp-Ser-His-Gly-Trp-Tyr-Pro-Gly-NH2 (EHWSHGWYPG; HELM PEPTIDE1{[Glp].H.W.S.H.G.W.Y.P.G.[am]}$$$$V2.0; SMILES NC(=O)CNC(=O)[C@@H]1CCCN1C(=O)[C@H](Cc1ccc(O)cc1)NC(=O)[C@H](Cc1c[nH]c2ccccc12)NC(=O)CNC(=O)[C@H](Cc1c[nH]cn1)NC(=O)[C@H](CO)NC(=O)[C@H](Cc1c[nH]c2ccccc12)NC(=O)[C@H](Cc1c[nH]cn1)NC(=O)[C@@H]1CCC(=O)N1)”, the “antiproliferative effect” value in series [5] is recorded as “showed antiproliferative effect”.

Broadly, the fraction remaining is the share of the starting amount still present when the sample was taken. Lower therefore signals a greater loss.

The record behind these values is patent US20120045393A1 (priority 2009, published 2012).
